These results are taken from patent US20080161366A1, “AMINOALKYL SUBSTITUTED ARYL SULFAMIDE DERIVATIVES AND METHODS OF THEIR USE” (Wyeth, priority 2006, published 2008).

Each structure is given as a SMILES string. Counter-ions that a name gives are not always drawn.

For this assay, the target named is human norepinephrine transporter (hNET) (Homo sapiens, UniProt P23975). Put plainly: hNET uptake, Protocol B: cell based norepinephrine reuptake assay using recombinant hNET (MDCK-Net6 cells). The settings on record: NE uptake (Protocol B) IC50 (nM), MDCK-Net6 cells, 3H-NE 16 nM.
Chain of human norepinephrine transporter (hNET) (P23975 whole entry): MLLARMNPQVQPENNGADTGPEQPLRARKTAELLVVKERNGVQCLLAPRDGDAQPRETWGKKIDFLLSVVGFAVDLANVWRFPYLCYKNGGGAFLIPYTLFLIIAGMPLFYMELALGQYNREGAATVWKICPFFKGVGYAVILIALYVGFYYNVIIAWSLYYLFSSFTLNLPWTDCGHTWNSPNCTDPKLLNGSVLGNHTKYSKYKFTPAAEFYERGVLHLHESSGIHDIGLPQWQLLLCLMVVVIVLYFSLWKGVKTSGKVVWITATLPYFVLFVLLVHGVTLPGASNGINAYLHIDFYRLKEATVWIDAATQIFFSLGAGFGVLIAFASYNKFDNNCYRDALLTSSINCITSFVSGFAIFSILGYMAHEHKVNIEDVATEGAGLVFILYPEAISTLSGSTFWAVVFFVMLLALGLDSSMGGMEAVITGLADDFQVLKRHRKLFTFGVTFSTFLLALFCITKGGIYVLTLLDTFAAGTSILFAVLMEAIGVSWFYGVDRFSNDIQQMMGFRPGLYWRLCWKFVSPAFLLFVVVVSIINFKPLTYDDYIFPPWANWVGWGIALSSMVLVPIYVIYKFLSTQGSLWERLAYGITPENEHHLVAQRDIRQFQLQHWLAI
The term IC50 denotes the midpoint of a concentration-inhibition curve. As for `CNCCCN1c2ccccc2N(c2ncccc2C)S1(=O)=O` [Example 27, N-methyl-3-[3-(3-methylpyridin-2-yl)-2,2-dioxido-2,1,3-benzothiadiazol-1(3H)-yl]propan-1-amine hydrochloride], the IC50 was determined as 11.7 nM.

As to `CNCCCN1c2ccccc2N(c2ccc(OC)nc2)S1(=O)=O` [Example 28, 3-[3-(6-methoxypyridin-3-yl)-2,2-dioxido-2,1,3-benzothiadiazol-1(3H)-yl]-N-methylpropan-1-amine hydrochloride], the IC50 was 1900 nM.

Turning to `CCc1ccc(N2c3ccccc3N(CCCNC)S2(=O)=O)nc1` [Example 29, 3-[3-(5-ethylpyridin-2-yl)-2,2-dioxido-2,1,3-benzothiadiazol-1(3H)-yl]-N-methylpropan-1-amine hydrochloride], the IC50 came to 434 nM.

As for `CNCCCN1c2ccccc2N(c2cc(C)ccn2)S1(=O)=O` [Example 30, N-methyl-3-[3-(4-methylpyridin-2-yl)-2,2-dioxido-2,1,3-benzothiadiazol-1(3H)-yl]propan-1-amine hydrochloride], the concentration for half-maximal inhibition (IC50) was 15.3 nM.

As to `CNCCCN1c2ccccc2N(c2ccccn2)S1(=O)=O` [Example 31, 3-(2,2-dioxido-3-pyridin-2-yl-2,1,3-benzothiadiazol-1(3H)-yl)-N-methylpropan-1-amine hydrochloride], the IC50 is 23.6 nM.

In the case of `CNCCCN1c2ccccc2N(c2cccc(C)n2)S1(=O)=O` [Example 32, N-methyl-3-[3-(6-methylpyridin-2-yl)-2,2-dioxido-2,1,3-benzothiadiazol-1(3H)-yl]propan-1-amine hydrochloride], the half-inhibitory concentration (IC50) worked out at 192 nM.

For the molecule `CNCCCN1c2ccccc2N(c2cnccc2C)S1(=O)=O` [Example 33, N-methyl-3-[3-(4-methylpyridin-3-yl)-2,2-dioxido-2,1,3-benzothiadiazol-1(3H)-yl]propan-1-amine hydrochloride], the IC50 is 282 nM.

Turning to `CNCCCN1c2ccccc2N(c2cccnc2)S1(=O)=O` [Example 34, 3-(2,2-dioxido-3-pyridin-3-yl-2,1,3-benzothiadiazol-1(3H)-yl)-N-methylpropan-1-amine hydrochloride], the IC50 turned out to be 85 nM.

For the molecule `CNCCCN1c2cc(F)ccc2N(c2ccccc2)S1(=O)=O` [Example 35, 3-(6-fluoro-2,2-dioxido-3-phenyl-2,1,3-benzothiadiazol-1(3H)-yl)-N-methylpropan-1-amine], the concentration for half-maximal inhibition (IC50) turned out to be 20.6 nM.

For `CNCCCN1c2ccc(Cl)cc2N(c2ccccc2)S1(=O)=O` [Example 36, 3-(5-Chloro-2,2-dioxido-3-phenyl-2,1,3-benzothiadiazol-1(3H)-yl)-N-methylpropan-1-amine], the IC50 was determined as 11.3 nM.

Turning to `CNCCCN1c2cc(Br)ccc2N(c2ccccc2)S1(=O)=O` [Example 37, 3-(6-bromo-2,2-dioxido-3-phenyl-2,1,3-benzothiadiazol-1(3H)-yl)-N-methylpropan-1-amine], the IC50 stood at 2360 nM.

As for `CNCCCN1c2ccc(C)cc2N(c2ccccc2)S1(=O)=O` [Example 38, N-methyl-3-(5-methyl-2,2-dioxido-3-phenyl-2,1,3-benzothiadiazol-1(3H)-yl)propan-1-amine], the IC50 came to 13.9 nM.

For the molecule `CNCCCN1c2c(F)cccc2N(c2ccccc2)S1(=O)=O` [Example 39, 3-(7-fluoro-2,2-dioxido-3-phenyl-2,1,3-benzothiadiazol-1(3H)-yl)-N-methylpropan-1-amine], the IC50 turned out to be 29.3 nM.

Turning to `CNCCCN1c2cc(C)ccc2N(c2ccccc2)S1(=O)=O` [Example 40, N-methyl-3-(6-methyl-2,2-dioxido-3-phenyl-2,1,3-benzothiadiazol-1(3H)-yl)propan-1-amine], the IC50 is 252 nM.

For `CNCCCN1c2cccc(F)c2N(c2ccccc2)S1(=O)=O` [Example 41, 3-(4-fluoro-2,2-dioxido-3-phenyl-2,1,3-benzothiadiazol-1(3H)-yl)-N-methylpropan-1-amine], the IC50 came out at 2.41 nM.

Take `CNCCCN1c2c(F)cccc2N(c2cccc(F)c2)S1(=O)=O` [Example 42, 3-[7-fluoro-3-(3-fluorophenyl)-2,2-dioxido-2,1,3-benzothiadiazol-1(3H)-yl]-N-methylpropan-1-amine]: the 50% inhibitory concentration (IC50) was found to be 86.3 nM.

`CNCCCN1c2cc(C#N)ccc2N(c2ccccc2)S1(=O)=O` [Example 43, 3-[3-(methylamino)propyl]-1-phenyl-1,3-dihydro-2,1,3-benzothiadiazole-5-carbonitrile 2,2-dioxide]: the concentration for half-maximal inhibition (IC50) turned out to be 1320 nM.

Regarding `CNCCCN1c2ccc(F)cc2N(c2ccccc2)S1(=O)=O` [Example 44, 3-(5-fluoro-2,2-dioxido-3-phenyl-2,1,3-benzothiadiazol-1(3H)-yl)-N-methylpropan-1-amine], the IC50 was 4.26 nM.

Take `CNCCCN1c2ccccc2N(c2cccc(F)c2F)S1(=O)=O` [Example 46, 3-[3-(2,3-difluorophenyl)-2,2-dioxido-2,1,3-benzothiadiazol-1(3H)-yl]-N-methylpropan-1-amine hydrochloride]: the half-inhibitory concentration (IC50) was 4.84 nM.

Consider `CNCCCN1c2ccccc2N(c2cc(F)cc(F)c2)S1(=O)=O` [Example 47, 3-[3-(3,5-difluorophenyl)-2,2-dioxido-2,1,3-benzothiadiazol-1(3H)-yl]-N-methylpropan-1-amine hydrochloride], for which the half-maximal inhibitory concentration (IC50) worked out at 2.73 nM.

Consider `CNCCCN1c2ccccc2N(c2cc(F)ccc2F)S1(=O)=O` [Example 48, 3-[3-(2,5-difluorophenyl)-2,2-dioxido-2,1,3-benzothiadiazol-1(3H)-yl]-N-methylpropan-1-amine hydrochloride], for which the IC50 came out at 2.78 nM.

As for `CNCCCN1c2ccccc2N(c2cccc(OC(F)(F)F)c2)S1(=O)=O` [Example 49, 3-{2,2-dioxido-3-[3-(trifluoromethoxy)phenyl]-2,1,3-benzothiadiazol-1(3H)-yl}-N-methylpropan-1-amine hydrochloride], the IC50 came out at 147 nM.

Regarding `CNCCCN1c2ccccc2N(c2ccccc2OC(F)(F)F)S1(=O)=O` [Example 50, 3-{2,2-dioxido-3-[2-(trifluoromethoxy)phenyl]-2,1,3-benzothiadiazol-1(3H)-yl}-N-methylpropan-1-amine hydrochloride], the 50% inhibitory concentration (IC50) came to 190 nM.

Consider `CNCCCN1c2ccccc2N(c2cccc(C(F)(F)F)c2)S1(=O)=O` [Example 51, 3-{2,2-dioxido-3-[3-(trifluoromethyl)phenyl]-2,1,3-benzothiadiazol-1(3H)-yl}-N-methylpropan-1-amine hydrochloride], for which the half-inhibitory concentration (IC50) came to 3170 nM.

`CNCCCN1c2ccccc2N(c2ccccc2Cl)S1(=O)=O` [Example 52, 3-[3-(2-chlorophenyl)-2,2-dioxido-2,1,3-benzothiadiazol-1(3H)-yl]-N-methylpropan-1-amine hydrochloride]: the IC50 stood at 2.74 nM.

Take `CNCCCN1c2ccccc2N(c2cccc(Br)c2)S1(=O)=O` [Example 53, 3-[3-(3-bromophenyl)-2,2-dioxido-2,1,3-benzothiadiazol-1(3H)-yl]-N-methylpropan-1-amine hydrochloride]: the half-inhibitory concentration (IC50) came to 24.5 nM.

For the molecule `NCCCN1c2ccccc2N(c2ccccc2F)S1(=O)=O` [Example 56, 3-[3-(2-fluorophenyl)-2,2-dioxido-2,1,3-benzothiadiazol-1(3H)-yl]propan-1-amine], the half-maximal inhibitory concentration (IC50) stood at 13.1 nM.

As for `CCNCCCN1c2ccccc2N(c2ccccc2F)S1(=O)=O` [Example 57, N-ethyl-3-[3-(2-fluorophenyl)-2,2-dioxido-2,1,3-benzothiadiazol-1(3H)-yl]propan-1-amine], the concentration for half-maximal inhibition (IC50) was determined as 2.56 nM.

As for `NCCCCN1c2ccccc2N(c2ccccc2F)S1(=O)=O` [Example 58, 4-[3-(2-fluorophenyl)-2,2-dioxido-2,1,3-benzothiadiazol-1(3H)-yl]butan-1-amine], the concentration for half-maximal inhibition (IC50) is 3270 nM.

In the case of `CNCCCN1c2ccccc2N(c2ccc(F)cc2Cl)S1(=O)=O` [Example 60, 3-[3-(2-Chloro-4-fluorophenyl)-2,2-dioxido-2,1,3-benzothiadiazol-1(3H)-yl]-N-methylpropan-1-amine hydrochloride], the half-maximal inhibitory concentration (IC50) was 40.2 nM.

For `NCCCN1c2ccccc2N(c2ccc(F)cc2Cl)S1(=O)=O` [Example 61, 3-[3-(2-Chloro-4-fluorophenyl)-2,2-dioxido-2,1,3-benzothiadiazol-1(3H)-yl]propan-1-amine hydrochloride], the IC50 was determined as 113 nM.

For `CNCCCN1c2ccccc2N(c2ccc(F)cc2C)S1(=O)=O` [Example 62, 3-[3-(4-fluoro-2-methylphenyl)-2,2-dioxido-2,1,3-benzothiadiazol-1(3H)-yl]-N-methylpropan-1-amine], the IC50 was found to be 50.9 nM.

As for `Cc1cc(F)ccc1N1c2ccccc2N(CCCN)S1(=O)=O` [Example 63, 3-[3-(4-fluoro-2-methylphenyl)-2,2-dioxido-2,1,3-benzothiadiazol-1(3H)-yl]propan-1-amine], the half-maximal inhibitory concentration (IC50) worked out at 324 nM.

As for `CNCCCN1c2ccccc2N(c2ccc(F)cc2OC)S1(=O)=O` [Example 64, 3-[3-(4-fluoro-2-methoxyphenyl)-2,2-dioxido-2,1,3-benzothiadiazol-1(3H)-yl]-N-methylpropan-1-amine], the IC50 turned out to be 295 nM.

`NCCCCCN1c2ccccc2N(c2ccccc2F)S1(=O)=O` [Example 65, 5-[3-(2-fluorophenyl)-2,2-dioxido-2,1,3-benzothiadiazol-1(3H)-yl]pentan-1-amine]: the half-maximal inhibitory concentration (IC50) was found to be 14.1 nM.

With `CNCCCCCN1c2ccccc2N(c2ccccc2F)S1(=O)=O` [Example 66, 5-[3-(2-fluorophenyl)-2,2-dioxido-2,1,3-benzothiadiazol-1(3H)-yl]-N-methylpentan-1-amine], the IC50 stood at 14.2 nM.

In the case of `CN(C)CCCCCN1c2ccccc2N(c2ccccc2F)S1(=O)=O` [Example 67, 5-[3-(2-fluorophenyl)-2,2-dioxido-2,1,3-benzothiadiazol-1(3H)-yl]-N,N-dimethylpentan-1-amine], the half-maximal inhibitory concentration (IC50) is 298 nM.

For the molecule `CNCCCN1c2ccccc2N(c2cccc(Cl)c2)S1(=O)=O` [Example 68, 3-[3-(3-Chlorophenyl)-2,2-dioxido-2,1,3-benzothiadiazol-1(3H)-yl]-N-methylpropan-1-amine hydrochloride], the IC50 amounted to 84.1 nM.
